According to PubChem BioAssay AID1645863 (Buhrlage Lab, Dana-Farber Cancer Institute and Novartis …, 2021):
Active and inactive are the calls of the source. The rule behind the calls is not given here.

Biological target: Ubiquitin carboxyl-terminal hydrolase 10 (Homo sapiens) (UniProt Q14694)
Assay: primary hit verification, biochemical, ubiquitin-specific protease 10 deubiquitylase inhibitors, concentration-effect titration (AID 1645863);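 note: potency values describe inhibition of USP10 cleavage of a fluorogenic ubiquitin substrate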
Settings: USP10 deubiquitinase enzymatic assay

Chain of Ubiquitin carboxyl-terminal hydrolase 10 (Homo sapiens) (Q14694 whole entry, looked up): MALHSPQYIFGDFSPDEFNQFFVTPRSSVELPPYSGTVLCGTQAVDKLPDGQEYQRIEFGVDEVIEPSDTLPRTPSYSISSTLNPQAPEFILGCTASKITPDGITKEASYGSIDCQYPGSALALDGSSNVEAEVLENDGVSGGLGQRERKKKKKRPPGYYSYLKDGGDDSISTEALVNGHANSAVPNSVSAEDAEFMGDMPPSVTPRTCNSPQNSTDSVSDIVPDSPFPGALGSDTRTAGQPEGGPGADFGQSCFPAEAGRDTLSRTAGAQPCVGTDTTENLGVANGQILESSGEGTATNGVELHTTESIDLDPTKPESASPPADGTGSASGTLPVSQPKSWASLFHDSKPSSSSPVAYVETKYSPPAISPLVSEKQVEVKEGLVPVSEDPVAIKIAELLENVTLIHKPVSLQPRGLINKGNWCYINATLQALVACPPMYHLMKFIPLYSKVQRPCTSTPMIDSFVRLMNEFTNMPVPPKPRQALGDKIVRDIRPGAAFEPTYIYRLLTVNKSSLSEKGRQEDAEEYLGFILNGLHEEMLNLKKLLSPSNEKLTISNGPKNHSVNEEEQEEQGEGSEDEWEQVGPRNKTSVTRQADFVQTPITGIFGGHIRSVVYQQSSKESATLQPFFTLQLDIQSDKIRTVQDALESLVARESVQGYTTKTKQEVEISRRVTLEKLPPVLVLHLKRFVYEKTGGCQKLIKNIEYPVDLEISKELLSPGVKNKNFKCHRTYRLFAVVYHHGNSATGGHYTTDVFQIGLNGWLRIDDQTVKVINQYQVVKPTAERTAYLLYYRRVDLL

Row | SMILES | IC50
1 | Cc1cc(Cl)ccc1NC(=O)c1cc(-c2ccncc2)n[nH]1 | > 40 µM (inactive)
2 | CC/C=C\C/C=C\C/C=C\CCCCCCCC(=O)O | 11.9 µM
3 | COc1ccc(NC(=O)Cn2c(=O)n(-c3ccc(CC(=O)NCc4ccco4)cc3)c(=O)c3ccccc32)cc1Cl | 15.1 µM
4 | COc1ccc(S(=O)(=O)N2CCc3ccccc32)cc1C(=O)Nc1ccc2[nH]c(=O)[nH]c2c1 | 24.2 µM
5 | COc1ccc(NC(=O)Cn2c(=O)n(Cc3ccco3)c(=O)c3ccc(C(=O)NC4CCCC4)cc32)cc1 | > 40 µM (inactive)
6 | CCOC(=O)N1CCC(NC(=O)c2cc(C(=O)Nc3ccc(S(=O)(=O)N4CCCCC4)cc3)ccc2CO)CC1 | > 40 µM (inactive)
7 | COc1cc2c(c(OC)c1OC)-c1ccc(NCCc3cccc(F)c3)c(=O)cc1[C@@H](NC(C)=O)CC2 | > 40 µM (inactive)
8 | Cn1c(=O)[nH]c2nncnc2c1=O | > 40 µM (inactive)
9 | Cc1cc(C)cc(NC(=O)C2CC(=O)Nc3nc4ccccc4n32)c1 (stereo not given) | > 40 µM (inactive)
10 | Cc1cccc(C(=O)Nc2cccc(SC(C(=O)Nc3ccc(O)c(C(=O)O)c3)c3ccccc3)c2)c1 (stereo not given) | > 40 µM (inactive)
11 | FC(F)(F)c1cccc(Nc2nc(-c3ccccn3)nc3ccccc23)c1 | > 40 µM (inactive)
12 | N#C/C(=C\c1ccccc1F)c1nnc(N)s1 | > 40 µM (inactive)
13 | Cc1ccc(NC(=O)Cc2sc(Nc3ccc(C)cc3)nc2O)cc1 | > 40 µM (inactive)
14 | COc1ccc(NS(=O)(=O)c2cc(NC(=O)CC(=O)c3ccc([N+](=O)[O-])cc3)ccc2Cl)cc1 | 12.2 µM
15 | O=C(O)c1ccccc1C(=O)Nc1ccc(SC(C(=O)Nc2ccccc2Cl)c2ccccc2)cc1 (stereo not given) | 16.8 µM
16 | O=C(NCc1ccc(Cl)cc1)c1cc2c(s1)-c1ccccc1OC2 | > 40 µM (inactive)
17 | Cc1cc(N2CCN(c3ncccn3)CC2)nc2ccc(NC(=O)c3ccncc3)cc12 | > 40 µM (inactive)
18 | COC(=O)c1cc2c(ccn2-c2ccc(F)cc2)n1CC(=O)NC1CCCCC1 | > 40 µM (inactive)

Row | SMILES | IC50
19 | Cc1nnc(-c2ccc3ccn(CC(=O)N4CCN(c5ccccc5)CC4)c3c2)o1 | > 40 µM (inactive)
20 | O=c1[nH]c2ccc(S(=O)(=O)Nc3ccc(O)c4ccccc34)cc2[nH]1 | 39 µM
21 | COc1ccc(Cl)cc1NC(=O)Cn1c(=O)n(CCCC(=O)NCc2ccc(C)cc2)c(=O)c2sccc21 | 31.1 µM
22 | Cc1ccc(Nc2nc(O)c(CC(=O)Nc3cccc(Cl)c3C)s2)cc1C | 25.4 µM
23 | O=C(CCCCn1c(=O)c2ccccc2n(CC(=O)Nc2ccc3c(c2)OCCO3)c1=O)NCc1ccco1 | 25.2 µM
24 | CCCCN1Cc2sc(NC(=O)Nc3ccccc3C)nc2C1=O | 15.6 µM
25 | Cc1cc(C(=O)Nc2cc([N+](=O)[O-])cc3oc(-c4ccccc4)cc23)on1 | > 40 µM (inactive)
26 | N#Cc1ccc(NC(=O)Nc2cccn(Cc3ccccc3F)c2=O)cc1 | > 40 µM (inactive)
27 | Cc1nc(C(=O)NC2(O)C(=O)c3ccccc3C2=O)cs1 | 6.82 µM
28 | CCCCCCCCCC(CCCCCCCCCC(=O)O)O[C@H]1O[C@@H](COC(C)=O)[C@H](O)[C@@H](O)[C@H]1OC(=O)CC(=O)O (stereo not given in full) | 29.4 µM
29 | Cc1cccc(NC(=O)Cn2c(=O)n(-c3cc(C)cc(C)c3)c(=O)c3sccc32)c1 | > 40 µM (inactive)
30 | Cn1c(=O)c(-c2ccc(C(=O)NCc3cccc(Cl)c3)cc2)nc2cccnc21 | > 40 µM (inactive)
31 | Cc1ccc(NC(=O)Nc2nnc(CC(=O)NCc3ccccc3)s2)c(Cl)c1 | > 40 µM (inactive)
32 | CSCCC(NC(=O)c1ccccc1)c1nc2ccccc2n1CC(=O)Nc1ccccc1 (stereo not given) | 35.9 µM
33 | O=C(c1ccc2c(c1)OCO2)[C@@H]1[C@H](C(=O)OC(c2ccccc2)c2ccccc2)N2c3ccccc3C=CC2[C@@]12C(=O)Nc1ccccc12 (stereo not given in full) | > 40 µM (inactive)
34 | COc1ccc([C@H]2Oc3cc(OC)cc(O)c3C(=O)[C@@H]2[C@@H]2C(=O)c3c(O)cc(O)cc3O[C@H]2c2ccc(OC)cc2)cc1 | 18.5 µM
35 | O=C1Nc2ccccc2C(=O)C1C(c1ccc(Cl)cc1)C1C(=O)Nc2ccccc2C1=O (stereo not given) | 10.2 µM
